Laboratory results from the supplement of paper PMC8183993.
Structures can show the parent of a compound that is named as a salt.

Assays:
Details in all cases: 24 h
U2OS [1] = assay: nuclei count in OPP assay relative to DMSO (% of DMSO); higher = more viable cells
Protocol: (§1)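 Validation screen in U2OS cells: hits tested at 1, 3 and 10 uM for 24 h in duplicate plates. Translation was read by OPP incorporation (1 h pulse) and HPG incorporation (30 min in methionine-free medium), quantified by high-throughput microscopy alongside nuclei counts. All values are normalised to DMSO (= 100).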

U2OS [2] = assay: mean OPP incorporation (global translation) relative to DMSO (% of DMSO); higher = more protein synthesis
Protocol: as §1

U2OS [3] = assay: mean HPG incorporation (global translation) relative to DMSO (% of DMSO); higher = more protein synthesis
Protocol: as §1

U2OS [4] = assay: nuclei count in HPG assay relative to DMSO (% of DMSO); higher = more viable cells
Protocol: as §1

| SMILES | nuclei count in OPP assay (U2OS [1]; 1 µM) | nuclei count in OPP assay (U2OS [1]; 3 µM) | nuclei count in OPP assay (U2OS [1]; 10 µM) | mean OPP incorporation (U2OS [2]; 1 µM) | mean OPP incorporation (U2OS [2]; 3 µM) | mean OPP incorporation (U2OS [2]; 10 µM) | mean HPG incorporation (U2OS [3]; 1 µM) | mean HPG incorporation (U2OS [3]; 3 µM) | mean HPG incorporation (U2OS [3]; 10 µM) | nuclei count in HPG assay (U2OS [4]; 1 µM) | nuclei count in HPG assay (U2OS [4]; 3 µM) | nuclei count in HPG assay (U2OS [4]; 10 µM) |
| --- | --- | --- | --- | --- | --- | --- | --- | --- | --- | --- | --- | --- |
| O=c1cc(N2CCOCC2)oc2c(-c3cccc4c3sc3ccccc34)cccc12 | 97.4 | 87.4 | 89.1 | 92.6 | 107 | 104 | 66.7 | 74.8 | 61.8 | 96.8 | 89.5 | 79.6 |
| Cc1c(-c2ccc(O)cc2)n(Cc2ccc(OCCN3CCCCCC3)cc2)c2ccc(O)cc12 [Bazedoxifene HCl] | 96.8 | 86.5 | 77.9 | 109 | 121 | 133 | 84.1 | 84.9 | 85.2 | 103 | 98.5 | 80.3 |
| Cc1c(C)c2c(c(C)c1O)CC[C@](C)(CN1CCN(c3cc(N4CCCC4)nc(N4CCCC4)n3)CC1)O2 | 95.4 | 101 | 102 | 98.2 | 97.2 | 111 | 90.2 | 93.4 | 87.1 | 94.9 | 102 | 98 |
| CCC(=O)CCCCC[C@@H]1NC(=O)[C@H]2CCCCN2C(=O)[C@H]([C@@H](C)CC)NC(=O)[C@H](Cc2cn(OC)c3ccccc23)NC1=O [Apicidin] | 106 | 95.4 | 91.7 | 92.2 | 83.9 | 55.8 | 132 | 135 | 85 | 108 | 96.3 | 88 |
| Oc1ccc(Nc2nc(-c3ccc(Cl)cc3)cs2)cc1 [SKI II] | 88.5 | 85.3 | 75.2 | 91 | 83.5 | 69.5 | 92.6 | 79.3 | 55.7 | 99 | 88.9 | 72.6 |
| CC[C@@H]1/C=C(\C)C[C@H](C)C[C@H](OC)[C@H]2O[C@@](O)(C(=O)C(=O)N3CCCC[C@H]3C(=O)O[C@H](/C(C)=C/[C@@H]3CC[C@H](Cl)[C@H](OC)C3)[C@H](C)[C@@H](O)CC1=O)[C@H](C)C[C@@H]2OC [Pimecrolimus] | 101 | 106 | 95.5 | 125 | 123 | 124 | 108 | 113 | 99.6 | 103 | 101 | 92.5 |
